Data published in US20230144824A1, “1H-PYRAZOLO[4,3-d]PYRIMIDINE COMPOUNDS AS TOLL-LIKE RECEPTOR 7 (TLR7) AGONISTS” (BRISTOL-MYERS SQUIBB COMPANY, priority 2020, published 2023).

Key:
human TLR7 = target: T1, human TLR7 (Homo sapiens, UniProt Q9NYK1); test: Human TLR7 agonist activity assay (HEK-Blue TLR7 SEAP reporter); type: cell-based; conditions: HEK-Blue TLR7 cells, 18 h treatment, average where assay performed multiple times, read-out: hTLR7 Agonism EC50
T1 construct: host or cells: HEK-Blue TLR7 cells (engineered human embryonic kidney cells)
T1 sequence (Q9NYK1 27-1049): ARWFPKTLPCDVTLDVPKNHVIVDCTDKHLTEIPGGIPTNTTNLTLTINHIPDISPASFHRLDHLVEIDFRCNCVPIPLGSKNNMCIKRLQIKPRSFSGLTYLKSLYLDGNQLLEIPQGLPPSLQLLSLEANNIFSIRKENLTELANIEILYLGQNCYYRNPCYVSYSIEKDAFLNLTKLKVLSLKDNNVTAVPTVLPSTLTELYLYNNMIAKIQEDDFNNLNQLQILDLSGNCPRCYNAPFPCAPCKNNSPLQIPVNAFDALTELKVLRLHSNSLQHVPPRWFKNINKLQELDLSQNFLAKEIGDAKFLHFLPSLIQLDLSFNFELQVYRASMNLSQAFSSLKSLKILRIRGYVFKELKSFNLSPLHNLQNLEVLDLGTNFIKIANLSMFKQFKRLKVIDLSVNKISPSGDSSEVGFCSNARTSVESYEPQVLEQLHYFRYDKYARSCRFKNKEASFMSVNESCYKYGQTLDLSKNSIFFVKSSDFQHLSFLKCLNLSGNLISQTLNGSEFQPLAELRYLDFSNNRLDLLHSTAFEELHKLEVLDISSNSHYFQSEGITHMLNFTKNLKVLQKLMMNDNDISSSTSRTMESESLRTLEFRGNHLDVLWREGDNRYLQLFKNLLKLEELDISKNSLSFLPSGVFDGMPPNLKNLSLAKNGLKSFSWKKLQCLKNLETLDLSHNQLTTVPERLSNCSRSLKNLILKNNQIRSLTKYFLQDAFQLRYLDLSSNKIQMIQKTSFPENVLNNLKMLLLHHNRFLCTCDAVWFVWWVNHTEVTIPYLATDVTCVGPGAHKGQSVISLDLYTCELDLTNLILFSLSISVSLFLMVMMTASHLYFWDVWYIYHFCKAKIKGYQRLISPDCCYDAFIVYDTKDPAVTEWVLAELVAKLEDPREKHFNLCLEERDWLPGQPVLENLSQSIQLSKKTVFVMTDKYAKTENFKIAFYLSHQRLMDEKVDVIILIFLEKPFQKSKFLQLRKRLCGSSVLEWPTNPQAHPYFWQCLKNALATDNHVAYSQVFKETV
How it was run: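 HEK-Blue TLR7 cells (15,000/well) treated with compound for 18 h at 37 °C, 5% CO2. Secreted SEAP measured with Quanti-Blue, 30 min, OD 620 nm. EC50 taken as concentration giving half-maximal response between baseline and maximum.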

CD69 = test: Induction of CD69 in human whole blood; type: cell-based; conditions: Homo sapiens, 17 h, 100% set to 1 uM of resiquimod, average where assay performed multiple times, read-out: hWB CD69 EC50
How it was run: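 Heparinized human whole blood treated with TLR7 agonist at final 1 uM and incubated 17 h at 37° C. CD69 surface staining alongside CD14 and CD19, then fix/lysis and flow cytometry on iQuePlus. Curves fitted with 1 uM resiquimod set as 100%.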

| SMILES | EC50 (human TLR7) [nM] | EC50 (CD69) [nM] |
| --- | --- | --- |
| CCCCNc1nc(N)nc2c(C)nn(Cc3ncc(C4CCNCC4)cc3OC)c12 [Compound 106, N7-butyl-1-{[3-methoxy-5-(piperidin-4-yl)pyridin-2-yl]methyl}-3-methyl-1H-pyrazolo[4,3-d]pyrimidine-5,7-diamine] | 549 | 150 |
| CCCCNc1nc(N)nc2cnn(Cc3ncc(C4CCNCC4)cc3OC)c12 [Compound 101, N7-butyl-1-{[3-methoxy-5-(piperidin-4-yl)pyridin-2-yl]methyl}-1H-pyrazolo[4,3-d]pyrimidine-5,7-diamine] | 56.6 | 9.3 |
| CCC[C@@H](CCO)Nc1nc(N)nc2cnn(Cc3ncc(C4CCN(C5CN(C(C)C)C5)CC4)cc3OC)c12 [Compound 139, (3S)-3-({5-amino-1-[(3-methoxy-5-{1-[1-(propan-2-yl)azetidin-3-yl]piperidin-4-yl}pyridin-2-yl)methyl]-1H-pyrazolo[4,3-d]pyrimidin-7-yl}amino)hexan-1-ol] | 8.1 | 1.1 |
| CCCCNc1nc(N)nc2cnn(Cc3ncc(C4CCN(CC(N)=O)CC4)cc3OC)c12 [Compound 119, 2-[4-(6-{[5-amino-7-(butylamino)-1H-pyrazolo[4,3-d]pyrimidin-1-yl]methyl}-5-methoxypyridin-3-yl)piperidin-1-yl]acetamide] | 165 | 5.1 |
| CCC[C@@H](CCO)Nc1nc(N)nc2cnn(Cc3ncc(C4CCN(C5CN(C)C5)CC4)cc3OC)c12 [Compound 138, (3S)-3-{[5-amino-1-({3-methoxy-5-[1-(1-methylazetidin-3-yl)piperidin-4-yl]pyridin-2-yl}methyl)-1H-pyrazolo[4,3-d]pyrimidin-7-yl]amino}hexan-1-ol] | 26.7 | 5.6 |
| CCC[C@@H](CCO)Nc1nc(N)nc2cnn(Cc3ncc(C4CCCN4)cc3OC)c12 (stereo partly drawn) [Compound 178, (3S)-3-[(5-amino-1-{[3-methoxy-5-(pyrrolidin-2-yl)pyridin-2-yl]methyl}-1H-pyrazolo[4,3-d]pyrimidin-7-yl)amino]hexan-1-ol] | 279 | 2 |
| CCC[C@@H](CCO)Nc1nc(N)nc2cnn(Cc3ncc(C4C[C@@H](C#N)CN4)cc3OC)c12 (mixture of isomers) [Compound 185, (3R)-5-{6-[(5-amino-7-{[(3S)-1-hydroxyhexan-3-yl]amino}-1H-pyrazolo[4,3-d]pyrimidin-1-yl)methyl]-5-methoxypyridin-3-yl}pyrrolidine-3-carbonitrile] | 399 | 27.8 |
| COc1cc(C2CCNCC2)cnc1Cn1ncc2nc(N)nc(NCc3cc(C)on3)c21 [Compound 137, 1-{[3-methoxy-5-(piperidin-4-yl)pyridin-2-yl]methyl}-N7-[(5-methyl-1,2-oxazol-3-yl)methyl]-1H-pyrazolo[4,3-d]pyrimidine-5,7-diamine] | 357 | 118 |
| CCC[C@@H](CCO)Nc1nc(N)nc2cnn(Cc3nc(C4CCN(C(=O)CN(C)C)CC4)ccc3OC)c12 [Compound 187, 1-(4-{6-[(5-amino-7-{[(3S)-1-hydroxyhexan-3-yl]amino}-1H-pyrazolo[4,3-d]pyrimidin-1-yl)methyl]-5-methoxypyridin-2-yl}piperidin-1-yl)-2-(dimethylamino)ethan-1-one] | 402 | 80.5 |
| CCCCNc1nc(N)nc2cnn(Cc3ncc(C4CCN(C(=O)CCN(C)C)CC4)cc3OC)c12 [Compound 109, 1-[4-(6-{[5-amino-7-(butylamino)-1H-pyrazolo[4,3-d]pyrimidin-1-yl]methyl}-5-methoxypyridin-3-yl)piperidin-1-yl]-3-(dimethylamino)propan-1-one] | 215 | 14.5 |

More lines, in order of falling EC50 (human TLR7), values ahead:

| EC50 (human TLR7) [nM] | EC50 (CD69) [nM] | SMILES |
| --- | --- | --- |
| 1650 | 242 | CCC[C@@H](CCO)Nc1nc(N)nc2cnn(Cc3nc(C4CCNCC4)ccc3OC)c12 [Compound 186, (3S)-3-[(5-amino-1-{[3-methoxy-6-(piperidin-4-yl)pyridin-2-yl]methyl}-1H-pyrazolo[4,3-d]pyrimidin-7-yl)amino]hexan-1-ol] |
| 295 | 265 | COc1cc(C2CCN(C3CNC3)CC2)cnc1Cn1ncc2nc(N)nc(NCc3cc(C)on3)c21 [Compound 143, 1-({5-[1-(azetidin-3-yl)piperidin-4-yl]-3-methoxypyridin-2-yl}methyl)-N7-[(5-methyl-1,2-oxazol-3-yl)methyl]-1H-pyrazolo[4,3-d]pyrimidine-5,7-diamine] |
| 107 | 36 | CCCCNc1nc(N)nc2cnn(Cc3ccc(C4CCN(S(C)(=O)=O)CC4)cc3OC)c12 [Compound 161, N7-butyl-1-{[4-(1-methanesulfonylpiperidin-4-yl)-2-methoxyphenyl]methyl}-1H-pyrazolo[4,3-d]pyrimidine-5,7-diamine] |
| 84.9 | 529 | CCCCNc1nc(N)nc2cnn(Cc3cc(F)c(N4CCN(S(C)(=O)=O)CC4)cc3OC)c12 [Compound 193, N7-butyl-1-{[5-fluoro-4-(4-methanesulfonylpiperazin-1-yl)-2-methoxyphenyl]methyl}-1H-pyrazolo[4,3-d]pyrimidine-5,7-diamine] |
| 84.6 | 10.5 | CCCCNc1nc(N)nc2cnn(Cc3ncc(C4CCN(C5CCS(=O)(=O)CC5)CC4)cc3OC)c12 [Compound 116, 4-[4-(6-{[5-amino-7-(butylamino)-1H-pyrazolo[4,3-d]pyrimidin-1-yl]methyl}-5-methoxypyridin-3-yl)piperidin-1-yl]-1λ^6-thiane-1,1-dione] |
| 63.1 | 37.1 | CCCCNc1nc(N)nc2cnn(Cc3cc(F)c(N4CCN(C(=O)CN5CC(OC)C5)CC4)cc3OC)c12 [Compound 194, 1-[4-(4-{[5-amino-7-(butylamino)-1H-pyrazolo[4,3-d]pyrimidin-1-yl]methyl}-2-fluoro-5-methoxyphenyl)piperazin-1-yl]-2-(3-methoxyazetidin-1-yl)ethan-1-one] |
| 14.1 | 2.6 | CCC[C@@H](CCO)Nc1nc(N)nc2cnn(Cc3ncc(C4CCN(C)CC4)cc3OC)c12 [Compound 134, (3S)-3-[(5-amino-1-{[3-methoxy-5-(1-methylpiperidin-4-yl)pyridin-2-yl]methyl}-1H-pyrazolo[4,3-d]pyrimidin-7-yl)amino]hexan-1-ol] |
| 5 | 0.065 | CCCCNc1nc(N)nc2cnn(Cc3ccc(C4CCN(C)CC4)cc3OC)c12 [Compound 163, N7-butyl-1-{[2-methoxy-4-(1-methylpiperidin-4-yl)phenyl]methyl}-1H-pyrazolo[4,3-d]pyrimidine-5,7-diamine] |
